Drawing on patent publication US8466188B2, “Use of spiro-oxindole compounds as therapeutic agents” (Xenon Pharmaceuticals Inc., priority 2006, dated 2013), this text covers melting point for 23 molecules.

Bounds are passed on as bounds.

For `O=C(CN1C(=O)C2(COc3cc4c(cc32)CCO4)c2cc(Cl)ccc21)Nc1ccccc1F` (centres unmarked) [Example 3.7, 2-(5′-chloro-2′-oxo-5,6-dihydrospiro[benzo[1,2-b:5,4-b′]difuran-3,3′-indol]-1′(2′H)-yl)-N-(2-fluorophenyl)acetamide], the melting point (as a rule, the temperature, or range, at which the solid turns liquid) is 229 to 230 °C.

Regarding `O=C(CN1C(=O)C2(COc3cc(Cl)ccc32)c2ccccc21)Nc1ccccc1F` (centres unmarked) [Example 3.8, 2-(6-chloro-2′-oxospiro[1-benzofuran-3,3′-indol]-1′(2′H)-yl)-N-(2-fluorophenyl)acetamide], the melting point fell in the range of 70 to 75 °C.

In turn, `O=C(CN1C(=O)C2(COc3cc(F)c(F)cc32)c2ccccc21)Nc1ccccc1F` (centres unmarked) [Example 3.9, 2-(5,6-difluoro-2′-oxospiro[1-benzofuran-3,3′-indol]-1′(2′H)-yl)-N-(2-fluorophenyl)acetamide] gave a melting point of 97 to 100 °C.

For the molecule `O=C(CN1C(=O)C2(COc3ccc(Br)cc32)c2ccccc21)Nc1ccccc1F` (centres unmarked) [Example 3.10, 2-(5-bromo-2′-oxospiro[1-benzofuran-3,3′-indol]-1′(2′H)-yl)-N-(2-fluorophenyl)acetamide], the melting point lay within 100 to 103 °C.

As to `O=C(CN1C(=O)C2(COc3cc4c(cc32)CCO4)c2c(Br)cccc21)Nc1ccccc1F` (centres unmarked) [Example 3.12, 2-(4′-bromo-2′-oxo-5,6-dihydrospiro[benzo[1,2-b:5,4-b′]difuran-3,3′-indol]-1′(2′H)-yl)-N-(2-fluorophenyl)acetamide], the melting point lay within 245 to 246 °C.

For the molecule `O=C(CN1C(=O)C2(COc3cc4c(cc32)CCO4)c2ccccc21)Nc1ccccc1F` (centres unmarked) [Example 3.13, N-(2-fluorophenyl)-2-(2′-oxo-5,6-dihydrospiro[benzo[1,2-b:5,4-b′]difuran-3,3′-indol]-1′(2′H)-yl)acetamide], the melting point was 210 to 212 °C.

For `Cc1ccc(F)c2c1N(CC(=O)Nc1ccccc1F)C(=O)C21COc2cc3c(cc21)CCO3` (centres unmarked) [Example 3.14, 2-(4′-fluoro-7′-methyl-2′-oxo-5,6-dihydrospiro[benzo[1,2-b:5,4-b′]difuran-3,3′-indol]-1′(2′H)-yl)-N-(2-fluorophenyl)acetamide], the melting point lay within 250 to 255 °C.

`CC1(C)Cc2cc3c(cc2O1)OCC31C(=O)N(CC(=O)Nc2ccccc2F)c2cccc(-c3cncnc3)c21` (centres unmarked) [Example 4.3, 2-(6,6-dimethyl-2′-oxo-4′-pyrimidin-5-yl-5,6-dihydrospiro[benzo[1,2-b:5,4-b′]difuran-3,3′-indol]-1′(2′H)-yl)-N-(2-fluorophenyl)acetamide] came in with a melting point of over 250 °C.

`O=C1Nc2cccc(-c3ccoc3)c2C12COc1cc3c(cc12)OCO3` (centres unmarked) [Example 4.4, 4′-(3-furyl)spiro[furo[2,3-f][1,3]benzodioxole-7,3′-indol]-2′(1′H)-one] gave a melting point of 270 to 272 °C.

`O=C1Nc2cccc(-c3cccc4c3oc3ccccc34)c2C12COc1cc3c(cc12)OCO3` (centres unmarked) [Example 4.5, 4′-dibenzo[b,d]furan-4-ylspiro[furo[2,3-f][1,3]benzodioxole-7,3′-indol]-2′(1′H)-one] came in with a melting point of over 230 °C.

`COc1ccc(-c2cccc3c2C2(COc4cc5c(cc42)OCO5)C(=O)N3Cc2ccc(C(F)(F)F)o2)cn1` (centres unmarked) [Example 4.6, 4′-(6-methoxypyridin-3-yl)-1′-{[5-(trifluoromethyl)-2-furyl]methyl}spiro[furo[2,3-f][1,3]benzodioxole-7,3′-indol]-2′(1′H)-one]: the melting point lay in the range of 174 to 176 °C.

In turn, `CN(C)c1ccc(-c2cccc3c2C2(COc4cc5c(cc42)OCO5)C(=O)N3Cc2ccc(C(F)(F)F)o2)cn1` (centres unmarked) [Example 4.7, 4′-[6-(dimethylamino)pyridin-3-yl]-1′-{[5-(trifluoromethyl)-2-furyl]methyl}spiro[furo[2,3-f][1,3]benzodioxole-7,3′-indol]-2′(1′H)-one] displayed a melting point of 174 to 176 °C.

In turn, `O=C1Nc2cccc(-c3cncnc3)c2C12COc1cc3c(cc12)OCO3` (centres unmarked) [Example 4.8, 4′-pyrimidin-5-ylspiro[furo[2,3-f][1,3]benzodioxole-7,3′-indol]-2′(1′H)-one] returned a melting point of 185 to 187 °C.

Take `O=C1N(Cc2ccccn2)c2cccc(-c3ccoc3)c2C12COc1cc3c(cc12)CCO3` (centres unmarked) [Example 4.9, 4′-(3-furyl)-1′-(pyridin-2-ylmethyl)-5,6-dihydrospiro[benzo[1,2-b:5,4-b′]difuran-3,3′-indol]-2′(1′H)-one]: the melting point lay within 195 to 197 °C.

For `O=C1N(Cc2ccccn2)c2cccc(-c3cccnc3)c2C12COc1cc3c(cc12)CCO3` (centres unmarked) [Example 4.11, 4′-pyridin-3-yl-1′-(pyridin-2-ylmethyl)-5,6-dihydrospiro[benzo[1,2-b:5,4-b′]difuran-3,3′-indol]-2′(1′H)-one], the melting point was over 200 °C.

Molecule `O=C1N(Cc2ccc(C(F)(F)F)o2)c2cccc(-c3ccoc3)c2C12COc1cc3c(cc12)CCO3` (centres unmarked) [Example 4.12, 4′-(3-furyl)-1′-{[5-(trifluoromethyl)-2-furyl]methyl}-5,6-dihydrospiro[benzo[1,2-b:5,4-b′]difuran-3,3′-indol]-2′(1′H)-one] showed a melting point of 167 to 169 °C.

For the molecule `O=C1N(Cc2ccc(C(F)(F)F)o2)c2cccc(-c3cncnc3)c2C12COc1cc3c(cc12)CCO3` (centres unmarked) [Example 4.14, 4′-pyrimidin-5-yl-1′-{[5-(trifluoromethyl)-2-furyl]methyl}-5,6-dihydrospiro[benzo[1,2-b:5,4-b′]difuran-3,3′-indol]-2′(1′H)-one], the melting point was in the range of 263 to 266 °C.

As for `O=C(CN1C(=O)C2(COc3cc4c(cc32)CCO4)c2c(-c3cncnc3)cccc21)Nc1ccccc1F` (centres unmarked) [Example 4.20, N-(2-fluorophenyl)-2-(2′-oxo-4′-pyrimidin-5-yl-5,6-dihydrospiro[benzo[1,2-b:5,4-b′]difuran-3,3′-indol]-1′(2′H)-yl)acetamide], the melting point lay in the range of 229 to 230 °C.

Molecule `CC(C)(C)OC(=O)N1CCC(CN2C(=O)C3(COc4cc5c(cc43)C(C)(C)CO5)c3ccccc32)CC1` (centres unmarked) [Example 10.18, tert-butyl 4-[(5,5-dimethyl-2′-oxo-5,6-dihydrospiro[benzo[1,2-b:5,4-b′]difuran-3,3′-indol]-1′(2′H)-yl)methyl]piperidine-1-carboxylate] returned a melting point of 65 to 75 °C.

`CC1(C)COc2cc3c(cc21)C1(CO3)C(=O)N(Cc2ccc(C(F)(F)F)o2)c2ccccc21` (centres unmarked) [Example 10.21, 5,5-dimethyl-1′-{[5-(trifluoromethyl)-2-furyl]methyl}-5,6-dihydrospiro[benzo[1,2-b:5,4-b′]difuran-3,3′-indol]-2′(1′H)-one] gave a melting point of 155 to 160 °C.

On to `O=C1N(Cc2ccc(F)cc2Cl)c2ccccc2C12COc1cc3c(cc12)OCO3` (centres unmarked) [Example 10.30, 1′-(2-chloro-4-fluorobenzyl)spiro[furo[2,3-f][1,3]benzodioxole-7,3′-indol]-2′(1′H)-one], for which the melting point lay within 174 to 175 °C.

In the case of `O=C1N(CCCC2CC2)c2ccccc2C12COc1cc3c(cc12)OCO3` (centres unmarked) [Example 10.32, 1′-(3-cyclopropylpropyl)spiro[furo[2,3-f][1,3]benzodioxole-7,3′-indol]-2′(1′H)-one], the melting point fell in the range of 111 to 113 °C.

Molecule `CCCCN1C(=O)C2(COc3cc4c(cc32)OCO4)c2ccccc21` (centres unmarked) [Example 10.33, 1′-butylspiro[furo[2,3-f][1,3]benzodioxole-7,3′-indol]-2′(1′H)-one] yielded a melting point of 119 to 120 °C.
